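Growth conditions: 96-well plates. Treatment: test compound, 48 hours, 5 concentrations. Analysis: linear interpolation between bracketing concentrations; unreached endpoints set to highest concentration. Abbreviation: GI50, concentration required for 50% inhibition of growth. TGI: concentration producing complete growth inhibition.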
Tests used:
Experiment in all cases: NCI anticancer screen, dose series, 48 h; in the data active = GI50 below about 0.43 µM; inactive = the rest
[1] = tested on: 786-0 renal
[2] = tested on: A498 renal
[3] = tested on: A549 NSCLC
[4] = tested on: ACHN renal
[5] = tested on: CAKI-1 renal
[6] = tested on: CCRF-CEM leukemia
[7] = tested on: COLO 205 colon
[8] = tested on: DU-145 prostate
[9] = tested on: HCC-2998 colon
[10] = tested on: HCT-116 colon
[11] = tested on: HCT-15 colon
[12] = tested on: HL-60(TB) leukemia
[13] = tested on: HOP-62 NSCLC
[14] = tested on: HOP-92 NSCLC
[15] = tested on: HS 578T breast
[16] = tested on: HT29 colon
[17] = tested on: IGROV1 ovarian
[18] = tested on: K-562 leukemia
[19] = tested on: KM12 colon
[20] = tested on: LOX IMVI melanoma
[21] = tested on: M14 melanoma
[22] = tested on: MALME-3M melanoma
[23] = tested on: MCF7 breast
[24] = tested on: MDA-MB-231 breast
[25] = tested on: MDA-MB-435
[26] = tested on: MDA-N
[27] = tested on: MOLT-4 leukemia
[28] = tested on: NCI-H226 lung
[29] = tested on: NCI-H23 lung
[30] = tested on: NCI-H460 lung
[31] = tested on: NCI-H522 lung
[32] = tested on: NCI/ADR-RES ovarian
[33] = tested on: OVCAR-3 ovarian
[34] = tested on: OVCAR-4 ovarian
[35] = tested on: OVCAR-5 ovarian
[36] = tested on: OVCAR-8 ovarian
[37] = tested on: PC-3 prostate
[38] = tested on: RXF 393 renal
[39] = tested on: SF-268 CNS
[40] = tested on: SF-295 CNS
[41] = tested on: SF-539 CNS
[42] = tested on: SK-MEL-2 melanoma
[43] = tested on: SK-MEL-28 melanoma
[44] = tested on: SK-MEL-5 melanoma
[45] = tested on: SK-OV-3 ovarian
[46] = tested on: SN12C renal
[47] = tested on: SNB-19 CNS
[48] = tested on: SNB-75 CNS
[49] = tested on: SR leukemia
[50] = tested on: SW-620 colon
[51] = tested on: T-47D breast
[52] = tested on: U251 CNS
[53] = tested on: UACC-257 melanoma
[54] = tested on: UACC-62 melanoma
[55] = tested on: UO-31 renal
[56] = tested on: EKVX NSCLC
[57] = tested on: RPMI-8226 leukemia
[58] = tested on: TK-10 renal
[59] = tested on: BT-549 breast

CN=C(NC#N)NCCSCc1nc[nH]c1C
> 100000 nM: TGI [1] | TGI [2] | TGI [3] | TGI [4] | TGI [5] | TGI [6] | TGI [7] | TGI [8] | TGI [9] | TGI [10] | TGI [11] | TGI [12] | TGI [13] | TGI [14] | TGI [15] | TGI [16] | TGI [17] | TGI [18] | TGI [19] | TGI [20] | TGI [21] | TGI [22] | TGI [23] | TGI [24] | TGI [25] | TGI [26] | TGI [27] | TGI [28] | TGI [29] | TGI [30] | TGI [31] | TGI [32] | TGI [33] | TGI [34] | TGI [35] | TGI [36] | TGI [37] | TGI [38] | TGI [39] | TGI [40] | TGI [41] | TGI [42] | TGI [43] | TGI [44] | TGI [45] | TGI [46] | TGI [47] | TGI [49] | TGI [50] | TGI [51] | TGI [52] | TGI [53] | TGI [54] | TGI [55]
79300 nM: TGI [48]

COCc1cc2c(cc1/C(=C/[N+](=O)[O-])CS(=O)(=O)c1ccccc1)OCO2
> 100000 nM: TGI [1] | TGI [2] | TGI [3] | TGI [4] | TGI [5] | TGI [6] | TGI [7] | TGI [8] | TGI [56] | TGI [9] | TGI [10] | TGI [11] | TGI [12] | TGI [13] | TGI [14] | TGI [15] | TGI [16] | TGI [17] | TGI [18] | TGI [20] | TGI [21] | TGI [23] | TGI [25] | TGI [26] | TGI [27] | TGI [28] | TGI [29] | TGI [30] | TGI [31] | TGI [32] | TGI [33] | TGI [35] | TGI [36] | TGI [57] | TGI [38] | TGI [39] | TGI [40] | TGI [41] | TGI [43] | TGI [44] | TGI [45] | TGI [46] | TGI [48] | TGI [49] | TGI [50] | TGI [51] | TGI [58] | TGI [52] | TGI [53] | TGI [54] | TGI [55]

N#Cc1ccc(N2Cc3ccccc3OC3=C2C(=O)c2c(O)ccc(O)c2C3=O)cc1
994 nM: TGI [24]
4990 nM: TGI [13]
1290 nM: TGI [37]
1790 nM: TGI [9]
357 nM: TGI [55]
1260 nM: TGI [59]
160 nM: TGI [4]
1720 nM: TGI [39]
2500 nM: TGI [36]
5050 nM: TGI [47]
313 nM: TGI [38]
1580 nM: TGI [35]
7070 nM: TGI [15]
active: GI50 [1] 145 nM | GI50 [4] 54.7 nM | GI50 [5] 99.2 nM | GI50 [6] 55.6 nM | GI50 [7] 90.7 nM | GI50 [8] 307 nM | GI50 [10] 102 nM | GI50 [11] 174 nM | GI50 [12] 130 nM | GI50 [14] 163 nM | GI50 [16] 258 nM | GI50 [18] 71 nM | GI50 [20] 166 nM | GI50 [21] 209 nM | GI50 [22] 83.7 nM | GI50 [23] 329 nM | GI50 [24] 242 nM | GI50 [25] 235 nM | GI50 [27] 102 nM | GI50 [28] 282 nM | GI50 [31] 33.6 nM | GI50 [33] 153 nM | GI50 [34] 216 nM | GI50 [36] 336 nM | GI50 [37] 357 nM | GI50 [57] 261 nM | GI50 [38] 157 nM | GI50 [43] 216 nM | GI50 [49] 56.3 nM | GI50 [50] 90.6 nM | GI50 [51] 175 nM | GI50 [58] 118 nM | GI50 [53] 258 nM | GI50 [54] 240 nM | GI50 [55] 166 nM
618 nM: TGI [11]
440 nM: TGI [20]
268 nM: TGI [7]
306 nM: TGI [50]
4230 nM: TGI [30]
487 nM: TGI [51]
667 nM: TGI [54]
6800 nM: TGI [32]
793 nM: TGI [34]
11900 nM: TGI [45]
1360 nM: TGI [17]
1380 nM: TGI [41]
162 nM: TGI [31]
1130 nM: TGI [28]
2680 nM: TGI [48]
3800 nM: TGI [42]
875 nM: TGI [16]
409 nM: TGI [14]
760 nM: TGI [27]
366 nM: TGI [5]
4170 nM: TGI [56]
6960 nM: TGI [40]
620 nM: TGI [43]
6100 nM: TGI [19]
821 nM: TGI [12]
2260 nM: TGI [44]
4130 nM: TGI [2]
381 nM: TGI [1]
9760 nM: TGI [3]
4200 nM: TGI [29]
579 nM: TGI [25]
919 nM: TGI [8]
265 nM: TGI [58]
433 nM: TGI [33]
264 nM: TGI [22]
1710 nM: TGI [52]
350 nM: TGI [10]
2160 nM: TGI [46]
1310 nM: TGI [57]
818 nM: TGI [53]
391 nM: TGI [6]
inactive: GI50 [2] 1790 nM | GI50 [3] 2490 nM | GI50 [59] 572 nM | GI50 [56] 818 nM | GI50 [9] 762 nM | GI50 [13] 1290 nM | GI50 [15] 1160 nM | GI50 [17] 497 nM | GI50 [19] 1280 nM | GI50 [29] 1320 nM | GI50 [30] 897 nM | GI50 [32] 611 nM | GI50 [35] 437 nM | GI50 [39] 598 nM | GI50 [40] 2120 nM | GI50 [41] 564 nM | GI50 [42] 1010 nM | GI50 [44] 685 nM | GI50 [45] 2990 nM | GI50 [46] 856 nM | GI50 [47] 1090 nM | GI50 [48] 660 nM | GI50 [52] 514 nM
496 nM: TGI [21]
2660 nM: TGI [23]

Reference: PubChem BioAssay (NCI)
